We go through one compound from patent US12398087B2, “Methods of making bempedoic acid and compositions of the same” (Esperion Therapeutics, Inc., priority 2019, dated 2025).

Series [1] in a line: Thermogravimetric analysis (TGA). In kind it is physicochemical. Conditions: crystalline form; heated at 10° C./minute from ~25° C. to about 315° C. How it is done:
Thermogravimetric analysis (TGA) data for the crystalline form of the compound of formula (V) were collected using a TA Discovery 550 TGA instrument. The TGA instrument was calibrated using a nickel reference standard. Samples of the crystalline form of the compound of formula (V) were placed in open platinum sample pans and heated at a rate of 10° C./minute from about ambient temperature (˜ 25° C.) to about 315° C.

Series [2] can be described thus: Water sorption by dynamic vapor sorption. Format: physicochemical. As to conditions: crystalline form; relative humidity of 80%, temperature of 25° C. How it is done: The crystalline form of the compound of formula (V) may also be characterized according to its water sorption properties. […] In certain embodiments, the crystalline form of the compound of formula (V) has a water sorption isotherm, when measured at 25° C., substantially the same as shown in FIG. 6.

`CC(C)(CCCCCC(O)CCCCCC(C)(C)C(=O)O)C(=O)O` [compound of formula (V), 8-hydroxy-2,2,14,14-tetramethylpentadecanedioic acid]: in series [1], the “weight loss in TGA curve” value is reported as “negligible weight loss prior to decomposition occurring”. For the same compound, the “change in mass, as determined by dynamic vapor sorption” value in series [2] is “about 0.03%”.
